From patent US9464064B2, “HCV helicase inhibitors and methods of use thereof” (University of Kansas, priority 2011, dated 2016)

Biological target: T1, HCV NS3 helicase NS3h_1b(con1) (Hepatitis C virus genotype 1b, UniProt Q9WMX2)
T1 construct: truncated C-terminally His-tagged NS3 proteins lacking the N-terminal protease, called NS3h; His-tag (C); made in house
Experiment: MBHA screen of NCI mechanistic set library at 20 μM (percent inhibition, compound interference)
Format: biochemical
Details: compounds at 20 μM; for Inh. (%) (Inhibition): calculated from Equation 1
Description: All molecular beacon-based helicase assays (MBHAs) were performed according to known methods (Belon & Frick (2008) supra; Belon & Frick (2009) supra). […] In each flat, black 384-well plate, 56 compounds were tested, in triplicate, along with three negative controls (DMSO only), three positive controls (500 nM dT20), and two wells with no enzyme. Fluorescence was read before ATP (F0) addition and 30 minutes after ATP was added to 1 mM (F30) using a Tecan Infinite M200 fluorescence microplate reader with excitation and emission wavelengths set to 643 and 670 nm, respectively. Percent inhibition was calculated with equation 1, and compound interference in the MBHA was calculated with equation 2.
In Equations 1 and 2, Fc0 is the fluorescence of the reactions containing the test compound before adding ATP, Fc30 is the fluorescence of the test compound reaction 30 minutes after adding ATP. F(−)0 is the average of three DMSO-only negative control reactions before adding ATP and F(−)30 is the average of three DMSO-only reactions 30 minutes after adding ATP.
To identify HCV helicase inhibitors, the MBHA was first used to screen the National Cancer Institute Developmental Therapeutics Program's mechanistic set library. In total, 827 compounds (at 20 μM) were screened using a MBHA with a DNA substrate (Table 1). Compounds were ranked by their ability to inhibit HCV helicase-catalyzed DNA unwinding as calculated from Equation 1.
Compound interference in the MBHA was evaluated by comparing the fluorescence of reactions containing each compound to the fluorescence of DMSO-only negative controls before ATP was added.

[1] = MBHA with DNA substrate, assay interference calculated with Equation 2
[2] = assay interference calculated with Equation 2 (fluorescence vs DMSO-only controls before ATP)

T1 sequence (Q9WMX2 1192-1657): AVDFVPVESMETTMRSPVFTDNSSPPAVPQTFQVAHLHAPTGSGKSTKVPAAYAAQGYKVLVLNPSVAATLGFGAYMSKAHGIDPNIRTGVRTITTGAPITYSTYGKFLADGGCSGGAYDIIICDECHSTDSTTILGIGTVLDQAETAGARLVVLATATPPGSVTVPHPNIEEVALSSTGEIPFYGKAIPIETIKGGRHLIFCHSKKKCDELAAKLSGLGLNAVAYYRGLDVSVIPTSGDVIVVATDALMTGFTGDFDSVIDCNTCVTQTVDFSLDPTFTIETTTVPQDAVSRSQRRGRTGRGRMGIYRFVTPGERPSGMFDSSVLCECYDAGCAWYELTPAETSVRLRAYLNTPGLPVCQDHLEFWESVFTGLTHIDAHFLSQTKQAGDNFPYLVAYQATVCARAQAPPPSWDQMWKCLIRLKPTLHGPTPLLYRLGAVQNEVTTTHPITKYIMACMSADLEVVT

Structure (SMILES) | Int.* (Ratio) (Interference) [1] | Inh. (%) (Inhibition) (MBHA with DNA substrate) | Inh. (%) (Inhibition) (MBHA with a DNA substrate) | Int.* (Ratio) (Interference) [2]
O=C(C[n+]1ccc2ccccc2c1)c1ccc2ccc3ccccc3c2c1 [Compound 35489] | 1.04 | 18.7 | – | –
Nc1nc(SCCc2ccccc2)c2[nH]cnc2n1 [Compound 35866] | 0.93 | 15.3 | – | –
O=S1(=O)CCN(c2ccccc2CC(c2c[nH]c3ccccc23)c2c[nH]c3ccccc23)CC1 [Compound 35949] | 1.25 | −8.9 | – | –
C=C1C(=O)OC2CC1C(OC(C)=O)C/C(C)=C/CC/C(C)=C\CCC2(C)O (stereo not drawn) [Compound 36437] | 0.99 | −17.3 | – | –
C[C@@H]1C[C@H]2OC(=O)[C@@]3(C)CCC[C@@](C)([C@@H]23)[C@@]1(O)CCc1ccoc1 [Compound 36693] | 0.76 | −8.8 | – | –
Nc1nc(SCc2ccccc2Cl)c2[nH]cnc2n1 [Compound 36826] | 0.98 | 3.4 | – | –
COc1nc(N)nc2nc[nH]c12 [Compound 37364] | 1.01 | 16.5 | – | –
Clc1ccc(C(c2ccccc2Cl)C(Cl)Cl)cc1 (stereo not drawn) [Compound 38721] | 0.93 | 0.3 | – | –
O=C1C(CN2CCCCC2)CCCC1CN1CCCCC1 (stereo not drawn) [Compound 39202] | 0.91 | 4.5 | – | –
Cc1nc(Cl)c(C)c(Cl)n1 [Compound 40212] | 0.95 | 1.1 | – | –
O=C1C(Cl)=C(N2CCN(C3=C(Cl)C(=O)c4ccccc4C3=O)CC2)C(=O)c2ccccc21 [Compound 40341] | – | – | −6.4 | 1.09
Nc1nc(SCc2ccccc2Cl)c2ncn(C3OC(CO)C(O)C3O)c2n1 (stereo not drawn) [Compound 40666] | – | – | −2.9 | 1.09
COc1ccc(/C=C/c2cc(O)cc(O[C@@H]3O[C@H](CO)[C@@H](O)[C@H](O)[C@H]3O)c2)cc1O [Compound 43321] | – | – | −28.3 | 1.07
CCN(CC)c1ccc2cc3ccc(=[N+](CC)CC)cc-3oc2c1.[Cl-] [Compound 44690] | 0.66 | 61.5 | – | –
COC1=C(N)C(=O)c2nc(-c3nc(C(=O)O)c(C)c(-c4ccc(OC)c(OC)c4O)c3N)ccc2C1=O [Compound 45383] | – | – | −19.1 | 1.05
CN(C)/N=N/c1nc[nH]c1C(N)=O [Compound 45388] | 0.95 | 17.5 | – | –
Oc1ccc2ccccc2c1N=Nc1cccc2ccccc12 [Compound 45575] | 0.97 | 18.4 | – | –
CN1CCN(CCCN2c3ccccc3Sc3ccc(C(F)(F)F)cc32)CC1 [Compound 46061] | 0.93 | 13.2 | – | –
CC(=O)O[C@]1(C(C)=O)CC[C@H]2[C@@H]3C[C@H](C)C4=CC(=O)C=C[C@]4(C)[C@@]3(F)[C@@H](O)C[C@@]21C [Compound 47438] | 1.18 | −12.2 | – | –
CC(C)(C)c1ccc(O)c(CN(Cc2cc(C(C)(C)C)ccc2O)C2CCCCC2)c1 [Compound 48151] | 0.98 | 2.1 | – | –

Structure (SMILES) | Int.* (Ratio) (Interference) [1] | Inh. (%) (Inhibition) (MBHA with DNA substrate) | Inh. (%) (Inhibition) (MBHA with a DNA substrate) | Int.* (Ratio) (Interference) [2]
[Cl-].c1csc(C[N+]23CN4CN(CN(C4)C2)C3)c1 [Compound 49660] | 0.93 | 21.2 | – | –
CC[C@]1(O)C[C@@H]2CN(CCc3c([nH]c4ccccc34)[C@@](C(=O)OC)(c3cc4c(cc3OC)N(C)[C@H]3[C@@](O)(C(=O)OC)[C@H](OC(C)=O)[C@]5(CC)C=CCN6CC[C@]43[C@@H]65)C2)C1.O=S(=O)(O)O [Compound 49842] | – | – | 9.9 | 0.98
[Cl][Cd][Cl] [Compound 51148] | 0.94 | 53.4 | – | –
CN(C)[C@@H]1C(=O)C(C(N)=O)=C(O)[C@@]2(O)C(=O)C3=C(O)c4c(O)cccc4C[C@H]3C[C@@H]12 [Compound 51812] | 0.99 | −8.1 | – | –
C[C@@H]1C[C@H]2CC[C@H](O2)[C@H](C)C(=O)O[C@@H](C)C[C@@H]2CC[C@@H](O2)[C@@H](C)C(=O)O[C@H](C)C[C@H]2CC[C@H](O2)[C@H](C)C(=O)O[C@@H](C)C[C@@H]2CC[C@@H](O2)[C@@H](C)C(=O)O1 [Compound 52141] | 0.83 | −11.6 | – | –
COc1ccc(-c2cc(=O)c3c(OC)c(OC)c(OC)cc3o2)cc1 [Compound 53908] | 0.82 | 26.0 | – | –
Nc1nc(-c2cccs2)cs1 [Compound 54297] | – | – | −4.0 | 0.96
COc1ccc2oc(-c3ccncc3)cc(=O)c2c1 [Compound 54650] | 1.11 | 24.7 | – | –
O=C1/C(=C/c2cccs2)Oc2ccccc21 [Compound 56544] | 0.96 | 1.5 | – | –
COc1cccc(/C=N\NC(=O)C(C)SC(C)C(=O)N/N=C/c2cccc(OC)c2)c1 (stereo not drawn) [Compound 56737] | 1.12 | −7.2 | – | –
Cc1cc2c(C(C)C)c(O)c(O)c(C=O)c2c(O)c1-c1c(C)cc2c(C(C)C)c(O)c(O)c(C=O)c2c1O [Compound 56817] | 0.90 | −2.0 | – | –
CO[C@@H]1[C@H](O)C[C@@H](O[C@@H]2C[C@H](Oc3cc4cc5c(c(O)c4c(O)c3C)C(=O)[C@@H](O[C@H]3C[C@@H](O[C@H]4C[C@@H](O[C@H]6C[C@](C)(O)[C@@H](OC(C)=O)[C@H](C)O6)[C@H](O)[C@@H](C)O4)[C@H](O)[C@@H](C)O3)[C@H]([C@H](OC)C(=O)[C@@H](O)[C@@H](C)O)C5)O[C@H](C)[C@@H]2OC(C)=O)O[C@@H]1C [Compound 58514] | 1.04 | 54.9 | – | –
CCCCCCCCCCCCCCCCOCC(O)CO (stereo not drawn) [Compound 59269] | 0.96 | −9.7 | – | –
O=[n+]1c2c(n([O-])c3ccccc31)-c1cccc3cccc-2c13 [Compound 60309] | 0.93 | 13.6 | – | –
CC12C(=O)OC(=O)C1(C)C1CCC2O1 (stereo not drawn) [Compound 61805] | 0.95 | −0.5 | – | –
CC[C@@]12CCCN3CC[C@]4(c5cccc(OC)c5N(C(C)=O)[C@@H]4CC1)[C@H]32 [Compound 61811] | 0.91 | −2.8 | – | –
CC(C)C(C)C=CC(C)C1CCC2C3=CC=C4CC(O)CCC4(C)C3CCC21C (stereo not drawn) [Compound 62791] | 0.93 | −9.1 | – | –
CS(=O)(=O)c1nc(N)nc2nc[nH]c12 [Compound 63446] | 0.76 | 4.3 | – | –
N#Cc1cn([C@@H]2O[C@H](CO)[C@@H](O)[C@H]2O)c2ncnc(N)c12 [Compound 63701] | – | – | −3.8 | 0.98
